Assay results from patent US7205295B2, “Benzoxazin-3-ones and derivatives thereof as therapeutic agents” (Warner-Lambert Company LLC, priority 2002, dated 2007).
pIC50: −log10 of the molar value. Counter-ions that a name gives are not always drawn.

target: T1, PI3Kγ (p101/p110γ protein) (Homo sapiens, UniProt P48736); assay: PI3Kγ In Vitro Kinase Assay; type: biochemical; details: purified recombinant p101/p110γ with G protein β1/γ2 subunits; 20 μM ATP, 25 μM PIP2; 20 minutes at room temperature
T1 construct: HA; made in house; host or cells: Spodoptera frugiperda (Sf9) cells, baculovirus co-infection
In short: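 Sf9-expressed, purified human p101/p110γ (2.7 nM) was activated by Gβ1/γ2 (57.7 nM) and reacted with 20 μM ATP plus [γ-32P]ATP on PIP2 (25 μM)/PE (300 μM) micelles with 10 mM MgCl2 in HEPES buffer. Reactions ran 20 min at room temperature. Filter-captured radiolabeled PIP3 was counted by scintillation.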

T1 sequence (P48736 whole entry, species assumed): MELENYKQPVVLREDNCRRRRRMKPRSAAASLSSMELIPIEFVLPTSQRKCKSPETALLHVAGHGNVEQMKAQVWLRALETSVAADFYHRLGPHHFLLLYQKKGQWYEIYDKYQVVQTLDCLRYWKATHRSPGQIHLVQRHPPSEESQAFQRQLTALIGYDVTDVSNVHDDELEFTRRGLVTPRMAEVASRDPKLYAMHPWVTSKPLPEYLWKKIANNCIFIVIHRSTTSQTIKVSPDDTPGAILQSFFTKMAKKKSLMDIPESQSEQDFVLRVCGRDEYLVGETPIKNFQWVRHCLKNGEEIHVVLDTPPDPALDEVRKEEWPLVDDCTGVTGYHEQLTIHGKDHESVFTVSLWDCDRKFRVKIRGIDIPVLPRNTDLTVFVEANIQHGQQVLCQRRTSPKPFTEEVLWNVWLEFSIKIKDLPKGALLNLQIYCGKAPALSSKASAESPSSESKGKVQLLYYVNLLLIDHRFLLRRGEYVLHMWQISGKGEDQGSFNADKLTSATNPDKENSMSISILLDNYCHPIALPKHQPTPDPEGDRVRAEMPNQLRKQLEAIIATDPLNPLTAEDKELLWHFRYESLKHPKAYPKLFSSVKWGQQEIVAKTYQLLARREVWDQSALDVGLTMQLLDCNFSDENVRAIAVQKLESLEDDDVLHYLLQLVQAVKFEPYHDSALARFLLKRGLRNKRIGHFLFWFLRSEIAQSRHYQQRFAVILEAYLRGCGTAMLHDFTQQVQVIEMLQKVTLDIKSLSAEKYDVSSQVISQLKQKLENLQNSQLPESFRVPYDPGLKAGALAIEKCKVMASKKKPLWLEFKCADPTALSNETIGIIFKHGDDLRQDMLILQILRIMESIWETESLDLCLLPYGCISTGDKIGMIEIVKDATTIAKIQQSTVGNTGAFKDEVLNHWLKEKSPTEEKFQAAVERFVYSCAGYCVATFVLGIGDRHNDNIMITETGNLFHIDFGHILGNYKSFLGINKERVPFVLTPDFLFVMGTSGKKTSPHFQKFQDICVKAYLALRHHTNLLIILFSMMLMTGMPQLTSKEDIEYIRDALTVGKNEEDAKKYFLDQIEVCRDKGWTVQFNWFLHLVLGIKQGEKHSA
T1 sequence (Q8WYR1 whole entry partner, species assumed): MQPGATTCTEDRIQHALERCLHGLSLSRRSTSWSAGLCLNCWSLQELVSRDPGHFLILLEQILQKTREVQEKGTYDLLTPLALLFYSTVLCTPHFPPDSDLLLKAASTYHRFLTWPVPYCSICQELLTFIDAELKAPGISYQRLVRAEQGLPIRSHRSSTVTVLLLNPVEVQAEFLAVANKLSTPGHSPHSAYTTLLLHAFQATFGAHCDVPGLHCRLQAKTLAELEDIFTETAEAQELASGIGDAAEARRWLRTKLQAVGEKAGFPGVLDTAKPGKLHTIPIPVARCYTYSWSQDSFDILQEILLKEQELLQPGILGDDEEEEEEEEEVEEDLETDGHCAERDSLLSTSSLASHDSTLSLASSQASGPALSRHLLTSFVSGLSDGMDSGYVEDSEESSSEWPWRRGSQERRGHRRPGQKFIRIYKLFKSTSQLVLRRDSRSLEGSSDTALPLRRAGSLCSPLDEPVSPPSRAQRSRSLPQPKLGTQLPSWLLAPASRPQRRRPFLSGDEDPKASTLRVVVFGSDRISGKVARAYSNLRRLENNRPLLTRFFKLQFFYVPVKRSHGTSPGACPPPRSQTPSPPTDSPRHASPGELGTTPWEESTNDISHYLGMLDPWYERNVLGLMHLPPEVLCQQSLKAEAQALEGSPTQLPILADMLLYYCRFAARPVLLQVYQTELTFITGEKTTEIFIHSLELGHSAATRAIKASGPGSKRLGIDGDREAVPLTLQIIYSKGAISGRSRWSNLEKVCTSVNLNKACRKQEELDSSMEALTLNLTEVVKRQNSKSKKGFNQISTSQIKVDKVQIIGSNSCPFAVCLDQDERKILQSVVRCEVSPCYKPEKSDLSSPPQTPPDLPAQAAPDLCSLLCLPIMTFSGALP

| SMILES | pIC50 |
| --- | --- |
| CC(c1cc(C(C)(C)C)cc(C(C)(C)C)c1)N1C(=O)COc2ccc(C=C3SC(=S)NC3=O)cc21 (centres unmarked) [Example 62, 4-[1-(3,5-Di-tert-butyl-phenyl)-ethyl]-6-(4-oxo-2-thioxo-thiazolidin-5-ylidenemethyl)-4H-1,4-benzoxazin-3-one] | 6.07 |
| COc1cc(CCCN2C(=O)COc3ccc(C=C4SC(=S)NC4=O)cc32)cc(OC)c1OC [Example 124, 6-(4-Oxo-2-thioxo-thiazolidin-5-ylidenemethyl)-4-[3-(3,4,5-trimethoxy-phenyl)-propyl]-4H-benzo[1,4]oxazin-3-one] | 7.82 |
| O=C(O)CN1C(=O)C(=Cc2cc(F)c3c(c2)N(Cc2ccc(F)c(Cl)c2)C(=O)CO3)SC1=S [Example 296, {5-[4-(3-Chloro-4-fluoro-benzyl)-8-fluoro-3-oxo-3,4-dihydro-2H-benzo[1,4]oxazin-6-ylmethylene]-4-oxo-2-thioxo-thiazolidin-3-yl}-acetic acid; compound with ethane-1,2-diamine] | 5.41 |
| CC(C)(O)c1cc(CN2C(=O)COc3c(F)cc(C=C4SC(=S)NC4=O)cc32)ccc1F [Example 302, 8-Fluoro-4-[4-fluoro-3-(1-hydroxy-1-methyl-ethyl)-benzyl]-6-(4-oxo-2-thioxo-thiazolidin-5-ylidenemethyl)-4H-benzo[1,4]oxazin-3-one; Compound with Ethane-1,2-diamine] | 7.92 |
| COC(=O)c1nc(CN2C(=O)COc3ccc(C=C4SC(=S)NC4=O)cc32)ncc1OC [Example 231, 5-Methoxy-2-[3-oxo-6-(4-oxo-2-thioxo-thiazolidin-5-ylidenemethyl)-2,3-dihydro-1,4-benzoxazin-4-ylmethyl]-pyrimidine-4-carboxylic acid methyl ester] | 7.30 |
| O=C1NC(=S)SC1=Cc1cc(Cl)c2c(c1)N(Cc1ccccc1)C(=O)CO2 [Example 50, 4-Benzyl-8-chloro-6-(4-oxo-2-thioxo-thiazolidin-5-ylidenemethyl)-4H-1,4-benzoxazin-3-one] | 8.00 |
| Cc1cc(CN2C(=O)COc3c(F)cc(C=C4SC(=S)NC4=O)cc32)nn1C(C)(C)C [Example 325, 4-(1-tert-Butyl-5-methyl-1H-pyrazol-3-ylmethyl)-8-flouro-6-(4-oxo-2-thioxo-thiazolidin-5-ylidenemethyl)-4H-benzo[1,4]oxazin-3-one] | 7.74 |
| CS(=O)(=O)c1ccc(Cn2c(=O)oc3ccc(C=C4SC(=S)NC4=O)cc32)cc1 [Example 291, 3-(4-Methanesulfonyl-benzyl)-5-(4-oxo-2-thioxo-thiazolidin-5-ylidenemethyl)-3H-benzoxazol-2-one; Compound with Ethane-1,2-diamine] | 6.36 |
| COCCOCOCc1cc(CN2C(=O)COc3ccc(/C=C4\SC(=S)NC4=O)cc32)cc(C(C)(C)C)c1 [Example 274, 4-[3-tert-Butyl-5-(2-methoxy-ethoxymethoxymethyl)-benzyl]-6-[4-oxo-2-thioxo-thiazolidin-(5Z)-ylidenemethyl]-4H-benzo[1,4]oxazin-3-one] | 7.89 |
| O=C(O)CN1C(=O)C(=Cc2ccc3c(c2)NC(=O)CO3)SC1=S [Example 10, [4-Oxo-5-(3-oxo-3,4-dihydro-2H-1,4-benzoxazin-6-ylmethylene)-2-thioxo-thiazolidin-3-yl]-acetic acid; compound with trifluoro-acetic acid] | 5.44 |
| O=C1CSc2ccc(C=C3SC(=S)NC3=O)cc2N1 [Example 83, 6-(4-Oxo-2-thioxo-thiazolidin-5-ylidenemethyl)-4H-1,4-benzothiazin-3-one] | 6.59 |
| O=C1NC(=S)S/C1=C\c1ccc2oc(=O)n(Cc3ccccc3)c2c1 [Example 290, 3-Benzyl-5-[4-oxo-2-thioxo-thiazolidin-(5Z)-ylidenemethyl]-3H-benzooxazol-2-one; Compound with Ethane-1,2-diamine] | 6.61 |
| O=C1NC(=S)SC1=Cc1cc(F)c2c(c1)N(Cc1cc(Br)cc(Br)c1)C(=O)CO2 [Example 297, 4-(3,5-Dibromo-benzyl)-8-fluoro-6-(4-oxo-2-thioxo-thiazolidin-5-ylidenemethyl)-4H-benzo[1,4]oxazin-3-one] | 7.44 |
| C/C(=C1/SC(=S)NC1=O)c1ccc2c(c1)N(Cc1ccccc1)C(=O)CO2 [Example 266, 4-Benzyl-6-{1-[4-oxo-2-thioxo-thiazolidin-(5Z)-ylidene]-ethyl}-4H-benzo[1,4]oxazin-3-one] | 5.79 |
| CC(C)(C)OC(=O)N1CCN(Cc2ccc(CN3C(=O)COc4ccc(C=C5SC(=O)NC5=O)cc43)cc2)CC1 [Example 75, 4-{4-[6-(2,4-dioxo-thiazolidin-5-ylidenemethyl)-3-oxo-2,3-dihydro-1,4-benzoxazin-4-ylmethyl]-benzyl}-piperazine-1-carboxylic acid tert-butyl ester] | 6.81 |
| O=C1NC(=S)SC1=Cc1cc(Cl)c2c(c1)N(CCc1ccc(Cl)c(Cl)c1)C(=O)CO2 [Example 110, 8-Chloro-4-[2-(3,4-dichloro-phenyl)-ethyl]-6-(4-oxo-2-thioxo-thiazolidin-5-ylidenmethyl)-4H-benzo[1,4]oxazin-3-one] | 7.26 |

Results, then the molecule that gave them:

| pIC50 | SMILES |
| --- | --- |
| 8.52 | O=C1NC(=S)SC1=Cc1ccc2c(c1)N(Cc1ccc(Cl)s1)C(=O)CO2 [Example 322, 4-(5-Chloro-thiophen-2-ylmethyl)-6-(4-oxo-2-thioxo-thiazolidin-5-ylidenemethyl)-4H-benzo[1,4]oxazin-3-one] |
| 7.60 | CC(=O)Nc1ccc(CN2C(=O)COc3ccc(C=C4SC(=S)NC4=O)cc32)cc1 [Example 177, N-{4-[3-Oxo-6-(4-oxo-2-thioxo-thiazolidin-5-ylidenemethyl)-2,3-dihydro-1,4-benzoxazin-4-ylmethyl]-phenyl}-acetamide] |
| 7.70 | O=C1NC(=S)SC1=Cc1ccc2c(c1)N(Cc1ccccc1OC(F)(F)F)C(=O)CO2 [Example 166, 6-(4-Oxo-2-thioxo-thiazolidin-5-ylidenemethyl)-4-(2-trifluoromethoxy-benzyl)-4H-1,4-benzoxazin-3-one] |
| 7.08 | COC(=O)CN1C(=O)COc2ccc(C=C3SC(=S)NC3=O)cc21 [Example 7, [3-Oxo-6-(4-oxo-2-thioxo-thiazolidin-5-ylidenemethyl)-2,3-dihydro-1,4-benzoxazin-4-yl]-acetic acid methyl ester] |
| 7.44 | O=C1NC(=S)SC1=Cc1ccc2c(c1)N(Cc1ccc3nccnc3c1)C(=O)CO2 [Example 314, 6-(4-Oxo-2-thioxo-thiazolidin-5-ylidenemethyl)-4-quinoxalin-6-ylmethyl-4H-benzo[1,4]oxazin-3-one] |
| 7.92 | O=C1NC(=S)SC1=Cc1ccc2c(c1)N(Cc1ccc(SC(F)(F)F)cc1)C(=O)CO2 [Example 168, 6-(4-Oxo-2-thioxo-thiazolidin-5-ylidenemethyl)-4-(4-trifluoromethylsulfanyl-benzyl)-4H-1,4-benzoxazin-3-one] |
| 8.52 | O=C1NC(=S)SC1=Cc1ccc2c(c1)N(Cc1ccc(CN3CCOCC3)cc1)C(=O)CO2 [Example 20, 4-(4-Morpholin-4-ylmethyl-benzyl)-6-(4-oxo-2-thioxo-thiazolidin-5-ylidenemethyl)-4H-1,4-benzoxazin-3-one] |
| 7.49 | CC(C)(C)c1cc(CN2C(=O)COc3ccc(C=C4SC(=S)NC4=O)cc32)cc(C(=O)O)c1 [Example 58, 3-tert-Butyl-5-[3-oxo-6-(4-oxo-2-thioxo-thiazolidin-5-ylidenemethyl)-2,3-dihydro-1,4-benzoxazin-4-ylmethyl]-benzoic acid] |
| 8.22 | CS(=O)(=O)c1ccc(CN2C(=O)COc3ccc(C=C4SC(=S)NC4=O)cc32)cc1 [Example 193, 4-(4-Methanesulfonyl-benzyl)-6-(4-oxo-2-thioxo-thiazolidin-5-ylidenemethyl)-4H-1,4-benzoxazin-3-one, Potassium Salt] |
| 8.40 | COc1c(CN2C(=O)COc3ccc(C=C4SC(=S)NC4=O)cc32)cccc1C(C)C [Example 260, 4-(3-Isopropyl-2-methoxy-benzyl)-6-(4-oxo-2-thioxo-thiazolidin-5-ylidenemethyl)-4H-1,4-benzoxazin-3-one] |
| 8.52 | O=C1NC(=S)SC1=Cc1ccc2c(c1)N(CCCc1ccccc1)C(=O)CO2 [Example 34, 6-(4-Oxo-2-thioxo-thiazolidin-5-ylidenemethyl)-4-(3-phenyl-propyl)-4H-1,4-benzoxazin-3-one] |
| 8.40 | O=C1NC(=S)SC1=Cc1ccc2c(c1)N(Cc1cc(F)c(O)c(F)c1)C(=O)CO2 [Example 295, 4-(3,5-Difluoro-4-hydroxy-benzyl)-6-(4-oxo-2-thioxo-thiazolidin-5-ylidenemethyl)-4H-benzo[1,4]oxazin-3-one] |
| 7.68 | CC(=O)Oc1ccc(CN2C(=O)COc3ccc(C=C4SC(=S)NC4=O)cc32)cc1 [Example 248, Acetic acid 4-[3-oxo-6-(4-oxo-2-thioxo-thiazolidin-5-ylidenemethyl)-2,3-dihydro-1,4-benzoxazin-4-ylmethyl]-phenyl ester] |
| 7.82 | O=C1NC(=S)SC1=Cc1ccc2c(c1)N(Cc1cccc(I)c1)C(=O)CO2 [Example 40, 4-(3-Iodo-benzyl)-6-(4-oxo-2-thioxo-thiazolidin-5-ylidenemethyl)-4H-1,4-benzoxazin-3-one] |
| 8.10 | O=C1NC(=S)SC1=Cc1ccc2c(c1)N(Cc1ccc(Oc3cccc4ccccc34)cc1)C(=O)CO2 [Example 25, 4-[4-(Naphthalen-1-yloxy)-benzyl]-6-(4-oxo-2-thioxo-thiazolidin-5-ylidenemethyl)-4H-1,4-benzoxazin-3-one] |
| 7.55 | O=C1NC(=S)SC1=Cc1ccc2c(c1)N(Cc1ccc(C(F)(F)F)cc1)C(=O)CO2 [Example 158, 6-(4-Oxo-2-thioxo-thiazolidin-5-ylidenemethyl)-4-(4-trifluoromethyl-benzyl)-4H-1,4-benzoxazin-3-one] |
